Values joined by “and” are separate entries in the source; they are usually repeats but may differ in a detail not shown here. Equal values may be shown once. “Also recorded” adds a separate entry of the source.
Key:
BRD4(1)^L94C [1] = molecular target: T1, BRD4(1)^L94C (Homo sapiens, UniProt O60885, L94C); experiment: Protein LCMS labeling assay 1; assay type: binding
T1 construct: Characterization of His6-BRD4(1)L94C; made in house; host or cells: E. coli BL21 (DE3)
Method: The resulting library of 22 fragments was screened for BRD4(1)^L94C binding at a concentration of 50 μM using a protein LCMS assay (referred to as “labeling assay 1”). […] To assess the selectivity of the fragments for the labeling of C94, hits were also screened against BRD4(1)^WT under the same conditions. […] The acrylamide-based fragment, 12, labeled 98% of BRD4(1)^L94C after 4 h. While 95% of the protein was labeled once, 3% of the protein was labeled twice (Figure 5D). […] Fragment 14, designed by appending a β-dimethylaminomethyl acrylamide to the structure of 12, led to 74% of singly labeled BRD4(1)^L94C after 4 h with no labeling of BRD4(1)^WT observed (Table 1 and Figure 5E). […] However, only 9.9% of labeled BRD4(1)^L94C was observed, substantially lower than the 56% labeling observed for the corresponding 3-methyl regioisomer 10 (Table 1). […]
Assays were performed in 1.5 mL Eppendorf tubes at 37 °C and gently shaken, unless otherwise stated.
Experiments were performed in a protein LCMS assay buffer, with 10 µM protein, and 50 µM of the desired compound with a final DMSO concentration of 0.5% (Table S16). Time points were taken at 0, 1 and 4 h, unless otherwise stated, where a 20 µL sample of the reaction mix was taken, diluted with 100 µL Milli-Q water, and flash frozen. Samples were thawed immediately prior to LCMS analysis on a Waters Xevo G2-S system (Waters) fitted with a ProSwift™ RP-2H PSDVB Reversed Phase HPLC Column (Thermofisher). Data was analysed and processed using MassLynx. The total ion chromatograms (TIC) were extracted (region containing protein) and the summed scans were deconvoluted (using MaxEnt). Covalent labeling was calculated using intensities of the unlabeled and labeled protein (Equation 1). Figures were made using GraphPad Prism 7.0.
Table S16. Buffer composition for protein LCMS.
Buffer Reagent Composition Amount per 1 L
Protein LCMS Assay Buffer HEPES 25 mM 6.0 g
Protein Labelling = Intensity of Labelled Peak × 100

BRD4(1)^L94C [2] = molecular target: T1, BRD4(1)^L94C; experiment: Fluorescent labeling of purified protein (CuAAC with TAMRA-PEG3-azide, in-gel fluorescence); assay type: binding; settings: 50 μM probe, 10 μM protein, 4 h, 37 °C, then CuAAC 1 h
Method: When 28, 29, 30, and 42 were incubated with either purified BRD4(1)^L94C or BRD4(1)^WT and subjected to a copper(I)-catalyzed alkyne–azide click reaction (CuAAC) reaction with the fluorescent TAMRA-PEG3-azide dye, all clickable probes labeled the mutant protein and could be visualized using fluorescence imaging of a gel (Figure 6).
Figure 6 Clickable probes 28, 29, 30, and 42 covalently label BRD4(1)^L94C and undergo a subsequent CuAAC reaction with TAMRA-PEG3 azide to fluorescently label the protein, as shown by in-gel fluorescence imaging. Compounds 28, 29, 30, 41, and 42 (50 μM) were incubated with purified BRD4(1)^L94C or BRD4(1)^WT (10 μM) for 4 h at 37 °C, followed by CuAAC reaction with TAMRA-PEG3 azide for 1 h and separation of components by SDS-PAGE. For all compounds other than 30, only labeling of BRD4(1)^L94C was observed. […]
Fluorescent labeling of purified proteins
Assays were performed in 1.5 mL Eppendorf tubes at 37 °C, and gently shaken, unless otherwise stated.
The desired click probe (50 µM) was incubated with protein (10 µM) in protein LCMS buffer for 4 h, after which TAMRA-PEG3-Azide (200 µM), TCEP·HCl (1 mM), TBTA (100 µM), and CuSO4 (1 mM) were added and incubated for a further 1 h at room temperature in the dark. A 25 µL sample of the […]
(§1) reaction mix was taken and 8 µL of Lamelli buffer added, and the samples denatured by heating at 95 °C for 10 min. Samples were separated by gel electrophoresis on NuPAGE™ 4–12%, Bis-Tris precast polyacrylamide gels (Thermofisher). Following electrophoresis, gels were stained for 15 min with InstantBlueTM Coomasie® stain (Abcam), destained, and imaged using Bio-rad molecular imager.
Bio-rad Image Lab 6.1 was used to process the data. […]
InstantBlueTM Coomasie® stain (Abcam), destained, and imaged using Bio-rad molecular imager. […]
(§2) MEM media. Cells were then harvested and lysed using the previously described protocol above. […]

[3] = system: T2, BRD4(1)^L94C transiently expressed in HEK293T cells; experiment: In-cell labeling by clickable probes, in-gel fluorescence; assay type: cell-based, human
T2 construct: the L94C mutation in the first bromodomain of BRD4 [BRD4(1)]; StrepII; expressed in transfected cells; host or cells: HEK293T
Method: (§3) To evaluate proteome-wide selectivity of the clickable probes, HEK293T cells transiently expressing BRD4(1)^L94C or BRD4(1)^WT were incubated with 10 μM of probes 28–30 and 42 for 1 h before the cells were lysed and the CuAAC reaction with TAMRA-PEG3-azide was conducted (Figure 7A). […]
as §1
(§4) Bio-rad Image Lab 6.1 was used to process the data.
(§5) In-cell target engagement
(§6) In-cell labeling by clickable probes
(§7) Transfected HEK293T cells at ~90% confluency were incubated for 1 h with a DMSO control (0.5% DMSO final concentration) or a click probe (10 µM, 0.5% DMSO final concentration) diluted in Opti- […]
Cells were then harvested and lysed using the previously described protocol above. The resulting cell lysates were diluted to 2 mg/mL using the previously described protocol above.
Cell lysates (50 µL) were then incubated with TAMRA-PEG3-Azide (200 µM), TCEP·HCl (2 mM), TBTA (200 µM), and CuSO4 (2 mM), for 1 h at rt in the dark. Samples were then prepared and separated by gel electrophoresis using the previously described protocol above.
Gels were imaged for fluorescence using Bio-rad molecular imager and then stained for 15 min with InstantBlueTM Coomasie® stain (Abcam), destained, and imaged using Bio-rad molecular imager.
Typically, the very bottom of the gel was removed prior to imaging due to residual, unreacted, TAMRA-PEG3-Azide, which would cause oversaturation and poor image quality. […]
as §2

[4] = system: endogenous proteins of HEK293T cells; experiment: In-cell proteome-wide selectivity of clickable probes; assay type: cell-based, human; settings: 10 μM probe, 1 h, live HEK293T cells expressing BRD4(1)^L94C or BRD4(1)^WT
Method: as §3, §1, §4, §5, §6, §7
Cells were then harvested and lysed using the previously described protocol above. The resulting cell lysates were diluted to 2 mg/mL using the previously described protocol above. […]
Gels were imaged for fluorescence using Bio-rad molecular imager and then stained for 15 min with InstantBlueTM Coomasie® stain (Abcam), destained, and imaged using Bio-rad molecular imager. […]

[5] = 50 μM compound, 10 µM protein, 37 °C, mean of three ± s.e.m., ND = not detectable

Compound | Labeled Protein (%) L94C 1 h (BRD4(1)^L94C [1]; [5]) | Second labeling event, share of total labeled protein (BRD4(1)^L94C [1]; labeling assay 1, 50 μM) [%] | Labeling of purified BRD4(1)^L94C, in-gel fluorescence (BRD4(1)^L94C [2]) | In-cell BRD4(1)^L94C engagement (fluorescent band ∼49 kDa) ([3]; 10 μM probe, 1 h) | Proteome-wide selectivity / off-target binding to endogenous proteins [4] | Labeled Protein (%) L94C 4 h (BRD4(1)^L94C [1]; 50 μM compound, 10 µM protein, 37 °C, 4 h, mean of three ± s.e.m., ND = not detectable) | Dose dependence of in-cell BRD4(1)^L94C labeling ([3]; 1 to 10 μM) | Time dependence of in-cell BRD4(1)^L94C labeling ([3]; time course 0.5–4 h)
C#CCOc1ccc(-c2c(C)noc2NC(=O)C=C)cc1 [Compound 30] | 96 ± 0.2% | 3 | high levels | highest level of BRD4(1)^L94C engagement | low cellular selectivity | – | – | –
C#CCOc1cc(NC(=O)C=C)ccc1N1CCCC1=O [Compound 42] | 37% and 37 ± 1.2% | – | high levels | – | exquisite proteome-wide selectivity; also recorded: almost complete selectivity | 82% and 82 ± 1.1% | dose dependent | time-dependent

Reference: PMC10660337, “Mutate and Conjugate: A Method to Enable Rapid In-Cell Target Validation” (ACS Chemical Biology, 2023)
